Measurements: patent US7569690B2, “Process for producing oxycarbonyl-substituted piperazine derivative” (Toray Fine Chemicals Co., Ltd., priority 2002, dated 2009)

Assays:
[1] = Thermal stability of the oxycarbonyl-substituted piperazine derivative (standing at temperature, liquid chromatography purity); format: physicochemical
Method: It was confirmed that the stability of the compound is greatly affected by the temperature and the heating time period.
It was noticed that when, for example, 1-benzyloxycarbonyl-3-methylpiperazine with a purity of 99.3 liquid chromatography area % was allowed to stand at 120° C., 160° C. or 200° C. for 12 hours, their liquid chromatography purity declined to 99.0 liquid chromatography area %, 95.6 liquid chromatography area % and 59.7 liquid chromatography area % respectively, and that the liquid chromatography purity of 1-benzyl-4-benzyloxycarbonyl-2-methylpiperazine corresponding to the compound represented by the general formula (7) rose to 0.2 liquid chromatography area %, 3.2 liquid chromatography area % and 30.7 liquid chromatography area % respectively.
Furthermore, when the compound was allowed to stand at 160° C. for 1 hour, the purity was 98.8 liquid chromatography area %, and it can be seen that the decomposition rate was small compared with the case of 12 hours.
For measuring the contents of the impurities contained in the oxycarbonyl-substituted piperazine derivative represented by the general formula (2), liquid chromatography is used. The analytical column for liquid chromatography used for analysis is a column using an octadecyl -based composition as a packing material. Particularly the use of Capcellpak C18, 120 angstroms, 5 μm, 4.6 mm×150 mm (Shiseido) is desirable.
The mobile phase is 5 mM sodium dodecyl sulfate (hereinafter abbreviated as SDS) aqueous solution (pH 2.5, phosphoric acid)/acetonitrile, and a gradient method for changing the composition with the lapse of time is used for analysis. That is, the acetonitrile content in the mobile phase is kept at 31 vol % from the start of analysis to 15 minutes later, and the acetonitrile content is then increased at a constant rate up to 45 vol %, taking 10 minutes, being kept at 45 vol % from 25 minutes later to 40 minutes later. The detector used is a UV measuring instrument, and the detection wavelength is 210 nm. The detection wavelength is very important, and if the detection wavelength is changed, the analyzed value may change. The reason is that the maximum wavelength of UV absorption changes depending on the compound. In this system, it is desirable that the wavelength is from 210 to 230 nm at which the ratios of the absorption sensitivity of the compound represented by the general formula (2) to the absorption sensitivities the compounds represented by the general formulae (5) to (8) are from 0.6 to 1.5. Analysis is made at a column oven temperature of 40° C. In the case where analysis is made under the above-mentioned analytical conditions, the retention times of 1-benzyloxycarbonyl-3-methylpiperazine and the impurities corresponding to the general formulae (5) to (8), i.e., 1,4-bis(carbobenzyloxy)-2-methylpiperazine, 1-benzyl-3-methylpiperazine, 4-benzyloxycarbonyl-1-benzyl-2-methylpiperazine and benzyl alcohol were 23.1 minutes, 31.0 minutes, 31.0 minutes, 30.0 minutes and 2.7 minutes respectively. The values of their area percentages can be used to obtain the impurity contents.

[2] = cited from earlier work

Liquid chromatography purity of decomposition product 1-benzyl-4-benzyloxycarbonyl-2-methylpiperazine after standing ([1]; 120° C. for 12 hours)	Liquid chromatography purity after standing ([1]; 120° C. for 12 hours, starting purity 99.3 liquid chromatography area %)	Liquid chromatography purity after standing ([1]; 160° C. for 1 hour)	Liquid chromatography purity of decomposition product 1-benzyl-4-benzyloxycarbonyl-2-methylpiperazine after standing ([1]; 160° C. for 12 hours)	Liquid chromatography purity after standing ([1]; 160° C. for 12 hours, starting purity 99.3 liquid chromatography area %)	Liquid chromatography purity of decomposition product 1-benzyl-4-benzyloxycarbonyl-2-methylpiperazine after standing ([1]; 200° C. for 12 hours)	Liquid chromatography purity after standing ([1]; 200° C. for 12 hours, starting purity 99.3 liquid chromatography area %)	SMILES	pKa [2]
0.2 liquid chromatography area %	99.0 liquid chromatography area %	98.8 liquid chromatography area %	3.2 liquid chromatography area %	95.6 liquid chromatography area %	30.7 liquid chromatography area %	59.7 liquid chromatography area %	CC1CN(C(=O)OCc2ccccc2)CCN1 (stereo not drawn) [1-benzyloxycarbonyl-3-methylpiperazine]	–
–	–	–	–	–	–	–	COc1ccccn1 [2-methoxypyridine]	6.62
–	–	–	–	–	–	–	c1cn[nH]c1 [pyrazole]	2.5
